Reference: patent US20020003114A1, “Partially halogenated hydantoins in papermaking applications” (Lonza Inc.;, priority 2000, published 2002)

What was measured:
[1] = Oxidant (halogen) loss rate with performance additive AKD; type: physicochemical
Method: (§1) 125 mL solutions containing 2.0 ppm (expressed total halogen as Cl2) of Cl0.9-5,5-dimethyl hydantoin, Dantochlor®, sodium hypochlorite, Dantobrom®, or sodium hypobromite and a performance additive described in Table 4 were prepared by mixing the appropriate amounts of the ingredients in tap water at a temperature of about 37° C. and a pH of about 8.
(§2) The degeneration of the performance additives tested was determined by measuring the residual oxidant (halogen) concentrations of the solutions over time as follows. The tests were performed in a water bath maintained at 37° C. and an orbital shaker in order to keep the performance additives dispersed in the solutions. Aliquots were taken at regular intervals over a 30 minute period and measured for residual slimicide concentrations using the standard diethyl-p-phenylene diamine (DPD) methodology described in Palin, A. T., Chemistry and Control of Modem Chlorination, La Motte Chemical (1973). The oxidant (halogen) loss rates were determined from first order linear regression plots of the residual oxidant (halogen) concentrations over time.
(§3) The ratio of bactericidal efficacy to oxidant loss rate was calculated for the slimicides and performance additives in Table 7 based on the results in Tables 5 and 6 above. […]

[2] = system: organisms native to the white water; assay: Bactericidal efficacy of slimicides in paper mill white water; type: cell-based; settings: Table 8
Method: White water was obtained from a Northeastern paperboard mill. The pH of the white water was about 6.5-7.5. The consistency of the white water was typically 0.1-0.2%. The furnish pulp was approximately 50% mixed, 15% chip, 15% corrugated, and 15% newspaper. The white water contained the sizing alkyl ketene dimer (AKD). The test organisms were those native to the white water.
The slimicide was added at a concentration of from about 15 to about 20 ppm (expressed as Cl2) to the white water. The white water was then incubated for 3 hours at 37° C. The test conditions were based on ASTM E 600-91 and ASTM E 1839-96. Bacterial counts were performed using tryptone glucose extract agar by known pour plate techniques. DIFCO D/E Neutralizing Broth was used as the first serial dilution tube for biocide neutralization.
The bactericidal efficacy of each slimicide in Table 6 was determined according to the procedure described in Example 2, except the incubation time was 30 minutes instead of 3 hours and the initial concentration of slimicide was about 20 ppm (expressed as Cl2).
The bactericidal efficacy rate of each slimicide was determined by dividing the observed log reduction in the bacterial count by the 30 minute contact time. The bactericidal efficacy rate at 2 ppm of slimicide (expressed as C2) was extrapolated from the results for 20 ppm of slimicide (expressed as Cl2) by assuming a first order behavior. […]
The bactericidal efficacy and bacterial efficacy rate of each slimicide in Table 8 below was determined according to the procedure described in Example 5.
The bactericidal efficacy of each slimicide in Table 10 was determined according to the procedure described in Example 2, except the initial concentration of slimicide was about 10 ppm (expressed as Cl2).
The microbiocidal efficacy rate of each slimicide was determined by dividing the observed log reduction in the bacterial count by the 180 minute contact time. The efficacy rate at 2 ppm of slimicide (expressed as Cl2) was extrapolated from the results for 10 ppm of slimicide (expressed as Cl2) by assuming a first order behavior. […]

[3] = Oxidant (halogen) loss rate with performance additive PAE; type: physicochemical
Method: as §1, §2, §3

[4] = Oxidant (halogen) loss rate with performance additive A-PAM; type: physicochemical
Method: as §1, §2, §3

[5] = Oxidant (halogen) loss rate with performance additive C-Starch; type: physicochemical
Method: as §1, §2, §3

[6] = Oxidant (halogen) loss rate with performance additive C-PAM; type: physicochemical
Method: as §1, §2, §3

[7] = Table 9, extrapolated rate at 2 ppm (Table 8) divided by oxidant loss rate (Table 5)

[Na+].[O-]Br [NaOBr, Sodium hypobromite]
Ratio of Bactericidal Efficacy Rate to Oxidant Loss Rate, AKD [1, 7]: 0.07 log cfu/ml reduction per ppm
Oxidant (Halogen) Loss Rate, AKD ([1]; slimicide 2.0 ppm (as Cl2), AKD 10 ppm active, tap water, 37° C., pH about 8, 30 minutes): 0.003 ppm/min
Bactericidal Efficacy Rate (log cfu/ml reduction per minute) ([2]; 20 ppm slimicide, log reduction divided by 30 minute contact time): 0.002 log cfu/ml reduction per minute
Extrapolated Bactericidal Efficacy Rate (at 2 ppm of Slimicide) (log cfu/ml reduction per minute) ([2]; extrapolated from 20 ppm to 2 ppm assuming first order (one-tenth)): 0.0002 log cfu/ml reduction per minute
Bactericidal Efficacy (log cfu/ml reduction in 30 minutes) ([2]; procedure of Example 5, slimicide about 20 ppm (as Cl2), white water, 30 minutes): 0.07 log cfu/ml reduction
Ratio of Bactericidal Efficacy Rate to Oxidant Loss Rate, PAE [3, 7]: 0.002 log cfu/ml reduction per ppm
Oxidant (Halogen) Loss Rate, PAE ([3]; slimicide 2.0 ppm (as Cl2), PAE 100 ppm active, tap water, 37° C., pH about 8, 30 minutes): 0.103 ppm/min
Ratio of Bactericidal Efficacy Rate to Oxidant Loss Rate, A-PAM [4, 7]: 0.007 log cfu/ml reduction per ppm
Oxidant (Halogen) Loss Rate, A-PAM ([4]; slimicide 2.0 ppm (as Cl2), A-PAM 50 ppm active, tap water, 37° C., pH about 8, 30 minutes): 0.029 ppm/min
Ratio of Bactericidal Efficacy Rate to Oxidant Loss Rate, C-Starch [5, 7]: 0.02 log cfu/ml reduction per ppm
Oxidant (Halogen) Loss Rate, C-Starch ([5]; slimicide 2.0 ppm (as Cl2), C-Starch 100 ppm active, tap water, 37° C., pH about 8, 30 minutes): 0.010 ppm/min
Ratio of Bactericidal Efficacy Rate to Oxidant Loss Rate, C-PAM [6, 7]: 0.008 log cfu/ml reduction per ppm
Oxidant (Halogen) Loss Rate, C-PAM ([6]; slimicide 2.0 ppm (as Cl2), C-PAM 4 ppm active, tap water, 37° C., pH about 8, 30 minutes): 0.025 ppm/min
